± gives the expanded uncertainty stated by the source.
Conditions: Hot wire method

F/C=C/C(F)(F)F [trans-1,3,3,3-tetrafluoropropene]
Conditions	thermal conductivity [W/m/K]
341.16 K, 8206 kPa, Liquid	0.06693 ± 0.00076
341.17 K, 3028 kPa, Liquid	0.06204 ± 0.0007
341.17 K, 12132 kPa, Liquid	0.07036 ± 0.00078
341.2 K, 1573 kPa, Liquid	0.06027 ± 0.00068
341.38 K, 96 kPa, Gas	0.01689 ± 0.00057
341.39 K, 20076 kPa, Liquid	0.07508 ± 0.00083
341.4 K, 194 kPa, Gas	0.01707 ± 0.00057
341.4 K, 3026 kPa, Liquid	0.06202 ± 0.0007
341.42 K, 8129 kPa, Liquid	0.06706 ± 0.00075
341.42 K, 16390 kPa, Liquid	0.07285 ± 0.00081
341.44 K, 21979 kPa, Liquid	0.07653 ± 0.00085
341.45 K, 1581 kPa, Liquid	0.06025 ± 0.00068
341.48 K, 12128 kPa, Liquid	0.07023 ± 0.00079
341.48 K, 20072 kPa, Liquid	0.07503 ± 0.00083
341.49 K, 5174 kPa, Liquid	0.06424 ± 0.00072
341.5 K, 3025 kPa, Liquid	0.06178 ± 0.0007
341.51 K, 16388 kPa, Liquid	0.07271 ± 0.00081
341.52 K, 8125 kPa, Liquid	0.0669 ± 0.00075
341.52 K, 21981 kPa, Liquid	0.07638 ± 0.00085
341.54 K, 1585 kPa, Liquid	0.05998 ± 0.00068
341.58 K, 5172 kPa, Liquid	0.06405 ± 0.00072
341.58 K, 8204 kPa, Liquid	0.06619 ± 0.00074
341.58 K, 12127 kPa, Liquid	0.07002 ± 0.00079
341.64 K, 194 kPa, Gas	0.01696 ± 0.00057
341.72 K, 673 kPa, Gas	0.01756 ± 0.00059
341.75 K, 673 kPa, Gas	0.01724 ± 0.00058
341.76 K, 3022 kPa, Liquid	0.0618 ± 0.0007
341.77 K, 449 kPa, Gas	0.01756 ± 0.00059
341.77 K, 450 kPa, Gas	0.01753 ± 0.00059
341.81 K, 1588 kPa, Liquid	0.06 ± 0.00068
341.81 K, 20066 kPa, Liquid	0.07498 ± 0.00083
341.83 K, 1416 kPa, Gas	0.01808 ± 0.00032
341.84 K, 16385 kPa, Liquid	0.0727 ± 0.00081
341.84 K, 21982 kPa, Liquid	0.07632 ± 0.00084
341.87 K, 297 kPa, Gas	0.0174 ± 0.00058
341.88 K, 8122 kPa, Liquid	0.06684 ± 0.00075
341.91 K, 194 kPa, Gas	0.01763 ± 0.00059
341.92 K, 12126 kPa, Liquid	0.06996 ± 0.00078
341.92 K, 20063 kPa, Liquid	0.07481 ± 0.00083
341.94 K, 8199 kPa, Liquid	0.0668 ± 0.00075
341.95 K, 21979 kPa, Liquid	0.07618 ± 0.00084
341.96 K, 16381 kPa, Liquid	0.07254 ± 0.0008
341.97 K, 1251 kPa, Gas	0.01812 ± 0.00032
341.97 K, 5173 kPa, Liquid	0.06395 ± 0.00072
342 K, 8119 kPa, Liquid	0.06663 ± 0.00074
342.04 K, 96 kPa, Gas	0.0178 ± 0.00059
342.04 K, 671 kPa, Gas	0.01723 ± 0.00058
342.04 K, 1049 kPa, Gas	0.01784 ± 0.00032
342.04 K, 1050 kPa, Gas	0.01784 ± 0.00032
342.04 K, 12122 kPa, Liquid	0.06981 ± 0.00078
342.06 K, 8193 kPa, Liquid	0.0666 ± 0.00074
342.08 K, 870 kPa, Gas	0.01766 ± 0.00059
342.09 K, 450 kPa, Gas	0.0176 ± 0.00059
342.09 K, 868 kPa, Gas	0.01764 ± 0.00059
342.09 K, 5187 kPa, Liquid	0.06375 ± 0.00072
342.1 K, 450 kPa, Gas	0.01757 ± 0.00059
342.19 K, 297 kPa, Gas	0.0174 ± 0.00058

Reference: the NIST ThermoML archive (doi:10.1021/je200811n)
